Source: US9833497B2, “Human originated EGF domain proteins and use of the same” (CHENGDU SOURCEBIO LIMITED-LIABILITY COMPANY, priority 2013, dated 2017)

Columns and labels:
Type in all cases: cell-based
E. coli DH5α = test: Antibacterial activity: MIC and growth curve against E. coli DH5α in 96-well plate; settings: minimal inhibitory concentration against E. coli DH5α; 96-well plate, 5×10^5 CFU/mL, 37° C., judged after 8 h
Procedure, shortened: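 Log-phase bacteria (OD600 ~0.5) resuspended in LB at 5×10^5 CFU/mL, exposed to recombinant protein at 50, 25, 12.5 μg/mL final in triplicate, 37 °C shaking at 175 rpm. OD600 read every 30 min; MIC is lowest concentration showing no growth.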

E. coli BL21 = test: MIC against Gram-negative bacteria: E. coli BL21; settings: for MIC E. coli BL21: two-fold serial dilution
Procedure, shortened: (§1)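 Bacteria grown in LB at 37° C to McFarland 0.5, resuspended and seeded at 5×10^5 CFU/mL in 96-well plates. Purified human EGF-domain proteins two-fold serially diluted, triplicate wells; cultured at 37° C, shaking 175 rpm. MIC = lowest protein concentration with no growth.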

Pseudomonas aeruginosa = test: MIC against Gram-negative bacteria: Pseudomonas aeruginosa; settings: for MIC P. aeruginosa: two-fold serial dilution
Procedure, shortened: as §1

Klebsiella pneumonia = test: MIC against Gram-negative bacteria: Klebsiella pneumonia; settings: for MIC K. pneumonia: two-fold serial dilution
Procedure, shortened: as §1

Enterobacter cloacae = test: MIC against Gram-negative bacteria: Enterobacter cloacae; settings: for MIC E. cloacae: two-fold serial dilution
Procedure, shortened: as §1

Aeromonas hydrophila = test: MIC against Gram-negative bacteria: Aeromonas hydrophila; settings: for MIC A. hydrophila: two-fold serial dilution
Procedure, shortened: as §1

Citrobacter diversus = test: MIC against Gram-negative bacteria: Citrobacter diversus; settings: for MIC C. diversus: two-fold serial dilution
Procedure, shortened: as §1

Moraxella catarrhalis = test: MIC against Gram-negative bacteria: Moraxella catarrhalis; settings: for MIC M. catarrhalis: two-fold serial dilution
Procedure, shortened: as §1

Proteus mirabilis = test: MIC against Gram-negative bacteria: Proteus mirabilis; settings: for MIC P. mirabilis: two-fold serial dilution
Procedure, shortened: as §1

Proteus vulgaris = test: MIC against Gram-negative bacteria: Proteus vulgaris; settings: for MIC P. vulgaris: two-fold serial dilution
Procedure, shortened: as §1

Serratia marcescens = test: MIC against Gram-negative bacteria: Serratia marcescens; settings: for MIC S. marcescens: two-fold serial dilution
Procedure, shortened: as §1

[1] = 10 h cultivation at 37° C., 5×10^5 CFU/mL
[2] = E. coli BL21, 96-well plate, 5×10^5 CFU/mL, 37° C., 10 h
[3] = Pseudomonas aeruginosa, 96-well plate, 5×10^5 CFU/mL, 37° C., 10 h
[4] = Klebsiella pneumonia, 96-well plate, 5×10^5 CFU/mL, 37° C., 10 h
[5] = Enterobacter cloacae, 96-well plate, 5×10^5 CFU/mL, 37° C., 10 h
[6] = Aeromonas hydrophila, 96-well plate, 5×10^5 CFU/mL, 37° C., 10 h
[7] = Citrobacter diversus, 96-well plate, 5×10^5 CFU/mL, 37° C., 10 h
[8] = Moraxella catarrhalis, 96-well plate, 5×10^5 CFU/mL, 37° C., 10 h
[9] = Proteus mirabilis, 96-well plate, 5×10^5 CFU/mL, 37° C., 10 h
[10] = Proteus vulgaris, 96-well plate, 5×10^5 CFU/mL, 37° C., 10 h
[11] = Serratia marcescens, 96-well plate, 5×10^5 CFU/mL, 37° C., 10 h

In the case of “PRT1116 (DIDECASRPCHHGATCRNLADRYECHCPLGYAGVTCE; listed as Homo sapiens)”, the MIC (E. coli DH5α) is reported as 25 µg/mL, the “MIC E. coli BL21” value (E. coli BL21; [1]) is reported as 12.5 µg/mL and the “MIC P. aeruginosa” value (Pseudomonas aeruginosa; [1]) is reported as 25 µg/mL. For the same substance, the “MIC K. pneumonia” value (Klebsiella pneumonia; [1]) was 12.5 µg/mL, the “MIC E. cloacae” value (Enterobacter cloacae; [1]) was 25 µg/mL and the “MIC A. hydrophila” value (Aeromonas hydrophila; [1]) was 25 µg/mL. The “MIC C. diversus” value (Citrobacter diversus; [1]) was 12.5 µg/mL, the “MIC M. catarrhalis” value (Moraxella catarrhalis; [1]) was 25 µg/mL and the “MIC P. mirabilis” value (Proteus mirabilis; [1]) was 50 µg/mL. The “MIC P. vulgaris” value (Proteus vulgaris; [1]) was 25 µg/mL and the “MIC S. marcescens” value (Serratia marcescens; [1]) was 12.5 µg/mL.
With “PRT1035 (HRAKCAPSYLFSCFNGGECVHPAFCDCRRFNATGPRCQ; listed as Homo sapiens)” the MIC (E. coli DH5α) was 12.5 µg/mL, the MIC (E. coli BL21; E. coli BL21, 10 h cultivation at 37° C.) was 50 µg/mL and the MIC (Pseudomonas aeruginosa; P. aeruginosa, 10 h cultivation at 37° C.) was 12.5 µg/mL. For the same substance, the MIC (Klebsiella pneumonia; K. pneumonia, 10 h cultivation at 37° C.) was 25 µg/mL, the MIC (Enterobacter cloacae; E. cloacae, 10 h cultivation at 37° C.) was 25 µg/mL and the MIC (Aeromonas hydrophila; A. hydrophila, 10 h cultivation at 37° C.) was 50 µg/mL. It also gave an MIC (Citrobacter diversus; C. diversus, 10 h cultivation at 37° C.) of 12.5 µg/mL, an MIC (Moraxella catarrhalis; M. catarrhalis, 10 h cultivation at 37° C.) of 25 µg/mL and an MIC (Proteus mirabilis; P. mirabilis, 10 h cultivation at 37° C.) of 12.5 µg/mL. For the same substance, the MIC (Proteus vulgaris; P. vulgaris, 10 h cultivation at 37° C.) was 25 µg/mL and the MIC (Serratia marcescens; S. marcescens, 10 h cultivation at 37° C.) was 50 µg/mL.
“PRT86 (VTNACASGPCPPHADCRDLWQTFSCTCQPGYYGPGCV; listed as Homo sapiens)” was tested, and the MIC (E. coli DH5α) was 50 µg/mL, the “MIC (μg/mL) E. coli BL21” value (E. coli BL21; [2]) was 12.5 µg/mL and the “MIC (μg/mL) P. aeruginosa” value (Pseudomonas aeruginosa; [3]) was 25 µg/mL. The “MIC (μg/mL) K. pneumonia” value (Klebsiella pneumonia; [4]) was 12.5 µg/mL, the “MIC (μg/mL) E. cloacae” value (Enterobacter cloacae; [5]) was 25 µg/mL and the “MIC (μg/mL) A. hydrophila” value (Aeromonas hydrophila; [6]) was 12.5 µg/mL. For the same substance, the “MIC (μg/mL) C. diversus” value (Citrobacter diversus; [7]) was 25 µg/mL, the “MIC (μg/mL) M. catarrhalis” value (Moraxella catarrhalis; [8]) was 12.5 µg/mL and the “MIC (μg/mL) P. mirabilis” value (Proteus mirabilis; [9]) was 25 µg/mL. The “MIC (μg/mL) P. vulgaris” value (Proteus vulgaris; [10]) was 12.5 µg/mL and the “MIC (μg/mL) S. marcescens” value (Serratia marcescens; [11]) was 12.5 µg/mL.
“PRT255 (DVDECVGLQPVCPQGTTCINTGGSFQCVSPECPEG; listed as Homo sapiens)” was tested, and the MIC (E. coli DH5α) was 12.5 µg/mL, the “MIC (μg/mL) E. coli BL21” value (E. coli BL21; E. coli BL21, 10 h cultivation at 37° C., 5×10^5 CFU/mL) was 12.5 µg/mL and the “MIC (μg/mL) P. aeruginosa” value (Pseudomonas aeruginosa; P. aeruginosa, 10 h cultivation at 37° C., 5×10^5 CFU/mL) was 12.5 µg/mL. The “MIC (μg/mL) K. pneumonia” value (Klebsiella pneumonia; K. pneumonia, 10 h cultivation at 37° C., 5×10^5 CFU/mL) was 12.5 µg/mL, the “MIC (μg/mL) E. cloacae” value (Enterobacter cloacae; E. cloacae, 10 h cultivation at 37° C., 5×10^5 CFU/mL) was 12.5 µg/mL and the “MIC (μg/mL) A. hydrophila” value (Aeromonas hydrophila; A. hydrophila, 10 h cultivation at 37° C., 5×10^5 CFU/mL) was 25 µg/mL. For the same substance, the “MIC (μg/mL) C. diversus” value (Citrobacter diversus; C. diversus, 10 h cultivation at 37° C., 5×10^5 CFU/mL) was 12.5 µg/mL, the “MIC (μg/mL) M. catarrhalis” value (Moraxella catarrhalis; M. catarrhalis, 10 h cultivation at 37° C., 5×10^5 CFU/mL) was 25 µg/mL and the “MIC (μg/mL) P. mirabilis” value (Proteus mirabilis; P. mirabilis, 10 h cultivation at 37° C., 5×10^5 CFU/mL) was 100 µg/mL. The “MIC (μg/mL) P. vulgaris” value (Proteus vulgaris; P. vulgaris, 10 h cultivation at 37° C., 5×10^5 CFU/mL) was 25 µg/mL and the “MIC (μg/mL) S. marcescens” value (Serratia marcescens; S. marcescens, 10 h cultivation at 37° C., 5×10^5 CFU/mL) was 12.5 µg/mL.
With “PRT1303 (HGLCRSVEKDSVVCECRPGWTGPLCD; listed as Homo sapiens)” the MIC (E. coli DH5α) was 12.5 µg/mL, the “MIC against E. coli BL21” value (E. coli BL21; [2]) was 50 µg/mL and the “MIC against P. aeruginosa” value (Pseudomonas aeruginosa; [3]) was 12.5 µg/mL. For the same substance, the “MIC against K. pneumonia” value (Klebsiella pneumonia; [4]) was 50 µg/mL, the “MIC against E. cloacae” value (Enterobacter cloacae; [5]) was 12.5 µg/mL and the “MIC against A. hydrophila” value (Aeromonas hydrophila; [6]) was 50 µg/mL. The “MIC against C. diversus” value (Citrobacter diversus; [7]) was 12.5 µg/mL, the “MIC against M. catarrhalis” value (Moraxella catarrhalis; [8]) was 12.5 µg/mL and the “MIC against P. mirabilis” value (Proteus mirabilis; [9]) was 25 µg/mL. For the same substance, the “MIC against P. vulgaris” value (Proteus vulgaris; [10]) was 12.5 µg/mL and the “MIC against S. marcescens” value (Serratia marcescens; [11]) was 25 µg/mL.
For “PRT1047 (SNTCTCKNGGTCLPENGNCVCAPGFRGPSCQ; listed as Homo sapiens)”, the MIC (E. coli DH5α) was 50 µg/mL, the “MIC E. coli BL21” value (E. coli BL21; [1]) was 50 µg/mL and the “MIC P. aeruginosa” value (Pseudomonas aeruginosa; [1]) was 25 µg/mL. For the same substance, the “MIC K. pneumonia” value (Klebsiella pneumonia; [1]) was 50 µg/mL, the “MIC E. cloacae” value (Enterobacter cloacae; [1]) was 25 µg/mL and the “MIC A. hydrophila” value (Aeromonas hydrophila; [1]) was 12.5 µg/mL. For the same substance, the “MIC C. diversus” value (Citrobacter diversus; [1]) was 50 µg/mL, the “MIC M. catarrhalis” value (Moraxella catarrhalis; [1]) was 12.5 µg/mL and the “MIC P. mirabilis” value (Proteus mirabilis; [1]) was 12.5 µg/mL. For the same substance, the “MIC P. vulgaris” value (Proteus vulgaris; [1]) was 12.5 µg/mL and the “MIC S. marcescens” value (Serratia marcescens; [1]) was 12.5 µg/mL.
